The values below are quoted from earlier work in article PMC7960626, “Phase I study assessing the mass balance, pharmacokinetics, and excretion of [^14C]-pevonedistat, a NEDD8-activating enzyme inhibitor in patients with advanced solid tumors” (Investigational New Drugs, 2020).

Data set [1] has as its system acute myeloid leukemia (AML) xenograft models. Details: method as in PMID 20203261. The conditions noted are these: mice; cited from earlier work.
On the set-up of data set [2]: method as in PMID 30845347. Particulars: strong and moderate CYP3A inhibitors (itraconazole); cited from earlier work.

Entries after “also recorded” stand apart in the source; their conditions may differ.

Regarding `NS(=O)(=O)OC[C@@H]1C[C@@H](n2ccc3c(N[C@H]4CCc5ccccc54)ncnc32)C[C@@H]1O` [Pevonedistat], in data set [1], the disease course result is “durable disease regression”. The “effect of CYP3A inhibitors on pevonedistat exposure” value in data set [2] is listed as “did not indicate clinically meaningful alterations in its PK; also recorded: did not result in clinically meaningful increases in pevonedistat exposure”.
